Source: ChEMBL document CHEMBL4020781, “Discovery of potent and orally active 1,4-disubstituted indazoles as novel allosteric glucokinase activators” (Bioorg Med Chem Lett, 2017)
The source made the active and inactive calls. No cut-off for these calls is given here.

How the values were obtained:
[1] = molecular target: T1, Hexokinase-4 (Homo sapiens, UniProt P35557); assay: Activation of full length human C-terminal FLAG-tagged glucokinase (12 to 465 residues) expressed in Escherichia coli DH10b using glucose as substrate after 60 mins in presence of ATP by kinase-glo luminescence assay
T1 sequence (P35557 whole entry): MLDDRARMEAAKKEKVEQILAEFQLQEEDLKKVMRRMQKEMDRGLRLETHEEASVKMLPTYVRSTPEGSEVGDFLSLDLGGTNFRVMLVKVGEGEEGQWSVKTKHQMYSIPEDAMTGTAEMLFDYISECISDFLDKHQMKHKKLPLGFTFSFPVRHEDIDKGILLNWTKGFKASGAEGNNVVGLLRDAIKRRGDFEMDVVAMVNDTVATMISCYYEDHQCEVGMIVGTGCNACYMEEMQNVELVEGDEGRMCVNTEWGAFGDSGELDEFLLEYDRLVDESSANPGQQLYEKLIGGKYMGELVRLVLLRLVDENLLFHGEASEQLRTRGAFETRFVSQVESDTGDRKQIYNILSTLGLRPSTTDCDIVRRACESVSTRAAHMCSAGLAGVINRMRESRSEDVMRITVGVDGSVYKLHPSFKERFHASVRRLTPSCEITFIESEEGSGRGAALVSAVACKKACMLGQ

[2] = molecular target: hERG (KCNH2) (Homo sapiens, UniProt Q12809); assay: Inhibition of human ERG at 10 uM
hERG (KCNH2), sequence (Q12809 whole entry, the tested form may be a part): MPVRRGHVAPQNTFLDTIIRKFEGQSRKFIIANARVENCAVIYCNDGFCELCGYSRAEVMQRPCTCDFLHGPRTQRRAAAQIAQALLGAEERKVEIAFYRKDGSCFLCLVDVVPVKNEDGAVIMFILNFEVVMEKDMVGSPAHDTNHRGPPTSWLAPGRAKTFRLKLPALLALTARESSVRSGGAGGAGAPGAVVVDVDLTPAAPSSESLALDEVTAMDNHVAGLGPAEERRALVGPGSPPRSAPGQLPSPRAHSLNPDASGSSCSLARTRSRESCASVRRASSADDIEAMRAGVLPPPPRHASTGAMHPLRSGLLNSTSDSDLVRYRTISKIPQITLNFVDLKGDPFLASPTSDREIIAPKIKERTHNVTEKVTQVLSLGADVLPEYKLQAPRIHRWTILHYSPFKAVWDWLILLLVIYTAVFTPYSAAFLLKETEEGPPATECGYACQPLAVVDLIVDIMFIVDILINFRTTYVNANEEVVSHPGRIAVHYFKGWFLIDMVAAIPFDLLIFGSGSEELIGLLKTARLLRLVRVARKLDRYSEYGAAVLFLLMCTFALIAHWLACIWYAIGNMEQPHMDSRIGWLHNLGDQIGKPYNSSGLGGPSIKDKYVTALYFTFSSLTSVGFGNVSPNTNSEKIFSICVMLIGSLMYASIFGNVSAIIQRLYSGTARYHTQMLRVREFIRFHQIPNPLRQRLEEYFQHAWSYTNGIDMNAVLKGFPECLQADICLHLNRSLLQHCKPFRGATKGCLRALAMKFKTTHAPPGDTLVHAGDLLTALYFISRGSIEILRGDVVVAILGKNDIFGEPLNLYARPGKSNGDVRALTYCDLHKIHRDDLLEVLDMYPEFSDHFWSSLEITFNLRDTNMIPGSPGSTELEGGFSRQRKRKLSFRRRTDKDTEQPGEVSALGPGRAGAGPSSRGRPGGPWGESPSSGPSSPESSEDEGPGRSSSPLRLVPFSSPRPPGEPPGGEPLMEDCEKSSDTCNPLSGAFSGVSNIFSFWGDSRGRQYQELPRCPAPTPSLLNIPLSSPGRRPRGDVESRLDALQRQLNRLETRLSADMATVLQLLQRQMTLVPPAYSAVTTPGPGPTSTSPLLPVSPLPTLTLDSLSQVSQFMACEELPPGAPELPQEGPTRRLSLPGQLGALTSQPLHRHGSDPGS

[3] = molecular target: T2, Hexokinase-4 (Homo sapiens) (UniProt P35557); assay: Activation of full length human C-terminal FLAG-tagged glucokinase (12 to 465 residues) expressed in Escherichia coli DH10b using glucose as substrate after 60 mins in presence of ATP by kinase-glo luminescence assay relative to control
T2 sequence (whole entry): T1 sequence (P35557 whole entry)

[4] = tested on: Mus musculus; assay: Antidiabetic activity in C57BL/6J mouse assessed as glucose lowering effect at 30 mg/kg, po; format: functional, organism-based
[5] = Hepatic extraction ratio in mouse liver microsomes; format: ADME, microsome; settings: read-out: ERH
[6] = Hepatic extraction ratio in rat liver microsomes; format: ADME, microsome; settings: read-out: ERH
[7] = Hepatic extraction ratio in human liver microsomes; format: ADME, microsome; settings: read-out: ERH
[8] = Half life in orally dosed rat; format: ADME, organism-based; settings: in vivo, po
[9] = Clearance in orally dosed rat; format: ADME, organism-based; settings: in vivo, po
[10] = tested on: Rattus norvegicus; assay: Volume of distribution in orally dosed rat; format: ADME, organism-based; settings: in vivo, po
[11] = Oral bioavailability in rat; format: ADME, organism-based; settings: in vivo
[12] = tested on: Mus musculus; assay: Antidiabetic activity in ob/ob mouse assessed as reduction in glucose excursion at 30 mg/kg, po by oral glucose tolerance test; format: functional, organism-based
[13] = Plasma protein binding in human; format: ADME, cell-free; settings: read-out: PPB (converted)
[14] = molecular target: T2, Hexokinase-4 (Homo sapiens); assay: Potency index, ratio of (S)-N-(5-chlorothiazol-2-yl)-2-(4-(cyclopropylsulfonyl)-6-methyl-2-oxopyridin-1(2H)-yl)-3-(tetrahydro-2H-pyran-4-yl)propanamide EC50 to compound EC50 for full length human C-terminal FLAG-tagged glucokinase (12 to 465 residues)

EC50 [1] [nM] | %max [3] [%] | Compound | inhibition at 10 µM [2] [%] | also measured
200 | 38 | NC(=O)c1cccnc1NC(=O)C(CC1CCOCC1)n1ncc2c(S(=O)(=O)C3CC3)cccc21 (racemic) | 29 | –
1000 | 32 | O=C(Nc1ncc(Cl)s1)[C@H](CC1CCOCC1)n1cc(S(=O)(=O)C2CCCC2)cn1 | – | –
7900 | 50 | Cc1ccc(NC(=O)C(CC2CCOCC2)n2ncc3c(S(=O)(=O)C4CC4)cccc32)nn1 (racemic) | 57 | –
> 100000 | 0 | O=C(Nc1ncc(F)s1)C(CC1CCOCC1)n1cc(S(=O)(=O)c2cccc(Cl)c2)cn1 (racemic) | – | –
100 | 74 | N#Cc1cc(S(=O)(=O)C2CC2)c2cnn(C(CC3CCOCC3)C(=O)Nc3ncc(F)s3)c2c1 (racemic) | 83 | –
> 100000 | 0 | CC(C)(C)S(=O)(=O)c1cnn(C(CC2CCOCC2)C(=O)Nc2ncc(F)s2)c1 (racemic) | – | –
80 | 71 | O=C(Nc1ncc(F)s1)[C@H](CC1CCOCC1)n1ncc2c(S(=O)(=O)C3CC3)cncc21 | 46 | Activity [4]: Active; hepatic extraction ratio [5]: 0.56; hepatic extraction ratio [6]: 0.33; hepatic extraction ratio [7]: 0.59; half-life [8]: 4.3 h; CL/F [9]: 29 mL/min/kg; Vd [10]: 1.9 L/kg; bioavailability [11]: 51%; Activity [12]: Active
1200 | 77 | Cc1cc(S(=O)(=O)C2CC2)cc(=O)n1[C@@H](CC1CCOCC1)C(=O)Nc1ncc(Cl)s1 | – | Activity [12]: Active
1200 | 79 | Cn1ccc(NC(=O)C(CC2CCOCC2)n2ncc3c(S(=O)(=O)C4CC4)cccc32)n1 (racemic) | 23 | –
790 | 95 | O=C(Nc1cnccn1)[C@H](CC1CCOCC1)n1ncc2c(S(=O)(=O)C3CC3)cccc21 | 45 | –
3100 | 73 | O=C(Nc1ccn(CCO)n1)C(CC1CCOCC1)n1ncc2c(S(=O)(=O)C3CC3)cccc21 (racemic) | 12.5 | –
630 | 88 | O=C(Nc1ncc(Cl)s1)[C@H](CC1CCCC1)n1cc(S(=O)(=O)C2CC2)cn1 | – | hepatic extraction ratio [6]: 0.85; hepatic extraction ratio [7]: 0.91
4000 | 37 | O=C(Nc1ncc(F)s1)[C@H](CC1CCOCC1)n1cc(S(=O)(=O)C2CC2)cn1 | – | hepatic extraction ratio [6]: 0.31 to 0.39; hepatic extraction ratio [7]: 0.31 to 0.39
100 | 96 | O=C(Nc1ncc(F)s1)[C@H](CC1CCOCC1)n1ncc2c(S(=O)(=O)C3CC3)cc(O)cc21 | – | –
630 | 73 | O=C(Nc1ncc(F)s1)[C@H](CC1CCCC1)n1cc(S(=O)(=O)C2CC2)cn1 | – | hepatic extraction ratio [6]: 0.85; hepatic extraction ratio [7]: 0.91
1600 | 49 | NC(=O)c1cnc(NC(=O)C(CC2CCOCC2)n2ncc3c(S(=O)(=O)C4CC4)cccc32)s1 (racemic) | 26 | –
5000 | 74 | Cc1nnc(NC(=O)C(CC2CCOCC2)n2ncc3c(S(=O)(=O)C4CC4)cccc32)s1 (racemic) | 23 | –
2000 | 35 | O=C(Nc1ncc(Cl)s1)[C@H](CC1CCOCC1)n1cc(S(=O)(=O)C2CC2)cn1 | – | hepatic extraction ratio [6]: 0.31 to 0.39; hepatic extraction ratio [7]: 0.31 to 0.39
40 | 83 | O=C(Nc1ncc(F)s1)[C@H](CC1CCOCC1)n1ncc2c(S(=O)(=O)C3CC3)cccc21 | 84 | –
100 | 100 | COc1cc(S(=O)(=O)C2CC2)c2cnn([C@@H](CC3CCOCC3)C(=O)Nc3ncc(F)s3)c2c1 | 78 | –
120 | 91 | O=C(Nc1ncc(F)s1)[C@H](CC1CCOCC1)n1ncc2c(S(=O)(=O)C3CC3)cc(F)cc21 | 77 | –
100 | 97 | NC(=O)c1cc(S(=O)(=O)C2CC2)c2cnn([C@@H](CC3CCOCC3)C(=O)Nc3ncc(F)s3)c2c1 | – | –
120 | 74 | O=C(Nc1ncc(F)s1)[C@H](CC1CCOCC1)n1ncc2c(S(=O)(=O)C3CC3)ccnc21 | 71 | –
31 | 65 | O=C(Nc1ncc(Cl)s1)[C@H](CC1CCOCC1)n1ncc2c(S(=O)(=O)C3CC3)cccc21 | 85 to 93 | fraction unbound [13]: 0.0004; hepatic extraction ratio [7]: 0.67; Ratio EC50 [14]: 40
> 100000 | 0 | O=C(Nc1ncc(Cl)s1)C(CC1CCOCC1)n1ncc2ccc(S(=O)(=O)C3CC3)cc21 (racemic) | – | –
500 | 26 | O=C(Nc1ncc(Cl)s1)[C@H](CC1CCOCC1)n1ncc2cc(S(=O)(=O)C3CC3)ccc21 | – | –
